Results reported in the supplement of paper PMC11061612.

What was measured:
Assay in all cases: combination Emax (second highest fraction inhibited in the dose matrix, 72 h); higher = more inhibition; extreme values may be limits of the assay
[1] = test system: KYAE-1 (Esophageal Adenocarcinoma)
Outline: (§1)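 Cell lines grown in DMEM/F12 or RPMI with 10% FBS were plated in 1536-well plates and held 24 hours at 37°C, 5% CO2 before 72 hours of exposure to two-drug dose matrices, with DMSO typically at 0.2%. CellTiter-Glo 2.0 luminescence gave viability, which was converted to inhibition. Vehicle wells were set to 0 and blank wells to 1. Combination Emax is the second-highest inhibition in the matrix, and Bliss excess is the observed combination effect minus the expected EA + EB − EA·EB, where EA and EB are the single-agent effects.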

[2] = test system: ALL-PO (B-Lymphoblastic Leukemia)
Outline: as §1

MPP-89 (Mesothelioma) = test system: MPP-89 (Mesothelioma)
Outline: as §1

[3] = test system: YAPC (Pancreatic Carcinoma)
Outline: as §1

[4] = test system: SNU-16 (Gastric Carcinoma)
Outline: as §1

[5] = test system: ESS-1 (Other Solid Carcinomas)
Outline: as §1

[6] = test system: LNZTA3WT4 (Low Grade Glioma)
Outline: as §1

GAMG (Glioblastoma) = test system: GAMG (Glioblastoma)
Outline: as §1

[7] = test system: BE-13 (T-Lymphoblastic Leukemia)
Outline: as §1

[8] = test system: LCLC-97TM1 (Non-Small Cell Lung Carcinoma)
Outline: as §1

BE2-M17 (Neuroblastoma) = test system: BE2-M17 (Neuroblastoma)
Outline: as §1

[9] = test system: NUGC-4 (Gastric Carcinoma)
Outline: as §1

[10] = test system: KMRC-20 (Kidney Carcinoma)
Outline: as §1

[11] = test system: HH (T-Cell Non-Hodgkin's Lymphoma)
Outline: as §1

[12] = test system: WSU-NHL (B-Cell Non-Hodgkin's Lymphoma)
Outline: as §1

[13] = test system: TGBC1TKB (Biliary Tract Carcinoma)
Outline: as §1

[14] = test system: OVCAR-5 (Ovarian Carcinoma)
Outline: as §1

EW-11 (Ewing's Sarcoma) = test system: EW-11 (Ewing's Sarcoma)
Outline: as §1

BPH-1 (Non-Cancerous) = test system: BPH-1 (Non-Cancerous)
Outline: as §1

Row | Compound | combination Emax [1] | combination Emax [2] | combination Emax (MPP-89 (Mesothelioma)) | combination Emax [3] | combination Emax [4] | combination Emax [5] | combination Emax [6] | combination Emax (GAMG (Glioblastoma)) | combination Emax [7] | combination Emax [8] | combination Emax (BE2-M17 (Neuroblastoma)) | combination Emax [9] | combination Emax [10] | combination Emax [11] | combination Emax [12] | combination Emax [13] | combination Emax [14] | combination Emax (EW-11 (Ewing's Sarcoma)) | combination Emax (BPH-1 (Non-Cancerous))
1 | CN(C)CCCOc1ccc(-c2ccc3ncc4c(c3c2)n(C2CCOCC2)c(=O)n4C)cn1 [AZD0156] + C=CCn1c(=O)c2cnc(Nc3ccc(N4CCN(C)CC4)cc3)nc2n1-c1cccc(C(C)(C)O)n1 [AZD1775] (first compound max 1 µM, partner max 1 µM) | 0.426 | 0.959 | 0.522 | 0.251 | 0.919 | 0.973 | 0.783 | 0.266 | 0.964 | 0.828 | 0.57 | 0.273 | 0.596 | 0.442 | 0.948 | 0.134 | 0.347 | 0.486 | 0.457
2 | CN(C)CCCOc1ccc(-c2ccc3ncc4c(c3c2)n(C2CCOCC2)c(=O)n4C)cn1 [AZD0156] + CCN(CCO)CCCOc1ccc2c(Nc3cc(CC(=O)Nc4cccc(F)c4)[nH]n3)ncnc2c1 [AZD2811] (first compound max 1 µM, 7x7, partner max 1 µM) | 0.103 | 0.977 | 0.105 | 0.137 | 0.593 | 0.606 | 0.105 | 0.22 | 0.674 | 0.371 | 0.411 | 0.0855 | 0.128 | 0.151 | 0.879 | 0.0674 | 0.137 | 0.409 | 0.459
3 | CN(C)CCCOc1ccc(-c2ccc3ncc4c(c3c2)n(C2CCOCC2)c(=O)n4C)cn1 [AZD0156] + C[C@@H]1COCCN1C2=NC(=NC(=C2)C3(CC3)[S@](=N)(=O)C)C4=C5C=CNC5=NC=C4 [AZD6738] (first compound max 1 µM, 7x7, partner max 10 µM) | 0.0979 | 0.922 | 0.63 | 0.294 | 0.982 | 0.989 | 0.778 | 0.422 | 0.723 | 0.88 | 0.928 | 0.639 | 0.65 | 0.427 | 0.998 | 0.397 | 0.756 | 0.668 | 0.427
4 | C=CCn1c(=O)c2cnc(Nc3ccc(N4CCN(C)CC4)cc3)nc2n1-c1cccc(C(C)(C)O)n1 [AZD1775] + C[C@@H]1COCCN1C2=NC(=NC(=C2)C3(CC3)[S@](=N)(=O)C)C4=C5C=CNC5=NC=C4 [AZD6738] (first compound max 1 µM, partner max 10 µM) | 0.588 | 0.977 | 0.737 | 0.492 | 0.989 | 1 | 0.9 | 0.596 | 1 | 0.891 | 0.957 | 0.593 | 0.763 | 0.583 | 1 | 0.502 | 0.782 | 0.72 | 0.588
5 | C=CCn1c(=O)c2cnc(Nc3ccc(N4CCN(C)CC4)cc3)nc2n1-c1cccc(C(C)(C)O)n1 [AZD1775] + O=C(c1cc(Cc2n[nH]c(=O)c3ccccc23)ccc1F)N1CCN(C(=O)C2CC2)CC1 [Olaparib] (first compound max 1 µM, partner max 10 µM) | 0.468 | 0.951 | 0.508 | 0.432 | 0.931 | 1 | 0.806 | 0.486 | 0.984 | 0.774 | 0.462 | 0.302 | 0.567 | 0.443 | 1 | 0.258 | 0.447 | 0.599 | 0.488
6 | CCN(CCO)CCCOc1ccc2c(Nc3cc(CC(=O)Nc4cccc(F)c4)[nH]n3)ncnc2c1 [AZD2811] + C=CCn1c(=O)c2cnc(Nc3ccc(N4CCN(C)CC4)cc3)nc2n1-c1cccc(C(C)(C)O)n1 [AZD1775] (first compound max 1 µM, partner max 1 µM) | 0.395 | 0.981 | 0.511 | 0.408 | 0.916 | 1 | 0.792 | 0.417 | 0.982 | 0.842 | 0.618 | 0.227 | 0.6 | 0.293 | 1 | 0.234 | 0.273 | 0.469 | 0.679
7 | CCN(CCO)CCCOc1ccc2c(Nc3cc(CC(=O)Nc4cccc(F)c4)[nH]n3)ncnc2c1 [AZD2811] + C[C@@H]1COCCN1C2=NC(=NC(=C2)C3(CC3)[S@](=N)(=O)C)C4=C5C=CNC5=NC=C4 [AZD6738] (first compound max 1 µM, 7x7, partner max 10 µM) | 0.122 | 0.979 | 0.646 | 0.288 | 0.974 | 0.97 | 0.754 | 0.399 | 0.732 | 0.842 | 0.741 | 0.547 | 0.596 | 0.179 | 0.967 | 0.383 | 0.698 | 0.686 | 0.4
8 | CCN(CCO)CCCOc1ccc2c(Nc3cc(CC(=O)Nc4cccc(F)c4)[nH]n3)ncnc2c1 [AZD2811] + O=C(c1cc(Cc2n[nH]c(=O)c3ccccc23)ccc1F)N1CCN(C(=O)C2CC2)CC1 [Olaparib] (first compound max 1 µM, 7x7, partner max 10 µM) | 0.208 | 0.975 | 0.189 | 0.147 | 0.705 | 0.63 | 0.223 | 0.399 | 0.824 | 0.319 | 0.354 | 0.21 | 0.24 | 0.0537 | 0.931 | 0.0912 | 0.184 | 0.564 | 0.566
9 | C[C@@H]1COCCN1c1cc(C2([S@](C)(=N)=O)CC2)nc(-c2ccnc3[nH]ccc23)n1 [AZD6738] + O=C(c1cc(Cc2n[nH]c(=O)c3ccccc23)ccc1F)N1CCN(C(=O)C2CC2)CC1 [Olaparib] (first compound max 10 µM, 7x7, partner max 10 µM) | 0.139 | 0.955 | 0.619 | 0.288 | 0.956 | 0.979 | 0.778 | 0.388 | 0.702 | 0.826 | 0.74 | 0.551 | 0.542 | 0.209 | 0.989 | 0.397 | 0.515 | 0.72 | 0.51
10 | COc1cccc2c1C(=O)c1c(O)c3c(c(O)c1C2=O)C[C@@](O)(C(=O)CO)C[C@@H]3O[C@H]1C[C@H](N)[C@H](O)[C@H](C)O1 [Doxorubicin] + Cc1cc2ncnn2cc1Nc1ncc2c(n1)n(C1CCOCC1)c(=O)n2C [AZD7648] (first compound max 1 µM, 7x7, partner max 10 µM) | 0.879 | 1 | 0.734 | 0.381 | 0.97 | 1 | 0.647 | 0.945 | 0.965 | 0.6 | 0.862 | 0.393 | 0.524 | 0.297 | 1 | 0.366 | 0.587 | 0.893 | 0.951
11 | COc1cccc(OCCCN)c1-c1cc(Nc2cnc(C#N)cn2)n[nH]1 [Prexasertib] + C=CCn1c(=O)c2cnc(Nc3ccc(N4CCN(C)CC4)cc3)nc2n1-c1cccc(C(C)(C)O)n1 [AZD1775] (first compound max 1 µM, partner max 1 µM) | 0.795 | 0.989 | 0.826 | 0.669 | 1 | 1 | 0.91 | 0.951 | 1 | 0.951 | 0.998 | 0.555 | 0.885 | 0.742 | 1 | 0.446 | 0.838 | 0.683 | 0.809
12 | COc1cccc(OCCCN)c1-c1cc(Nc2cnc(C#N)cn2)n[nH]1 [Prexasertib] + CN(C)CCCOc1ccc(-c2ccc3ncc4c(c3c2)n(C2CCOCC2)c(=O)n4C)cn1 [AZD0156] (first compound max 1 µM, 7x7, partner max 1 µM) | 0.594 | 0.979 | 0.724 | 0.559 | 1 | 1 | 0.885 | 0.843 | 0.965 | 0.925 | 0.983 | 0.49 | 0.924 | 0.703 | 1 | 0.361 | 0.838 | 0.756 | 0.235
13 | COc1cccc(OCCCN)c1-c1cc(Nc2cnc(C#N)cn2)n[nH]1 [Prexasertib] + C[C@@H]1COCCN1C2=NC(=NC(=C2)C3(CC3)[S@](=N)(=O)C)C4=C5C=CNC5=NC=C4 [AZD6738] (first compound max 1 µM, 7x7, partner max 10 µM) | 0.573 | 0.982 | 0.724 | 0.555 | 1 | 1 | 0.91 | 0.874 | 0.967 | 0.941 | 0.994 | 0.543 | 0.881 | 0.674 | 1 | 0.552 | 0.817 | 0.734 | 0.356
14 | CCc1c2c(nc3ccc(O)cc13)-c1cc3c(c(=O)n1C2)COC(=O)[C@]3(O)CC [SN-38] + O=C(c1cc(Cc2n[nH]c(=O)c3ccccc23)ccc1F)N1CCN(C(=O)C2CC2)CC1 [Olaparib] (first compound max 0.3 µM, 7x7, partner max 10 µM) | 0.118 | 0.981 | 0.646 | 0.646 | 0.848 | 1 | 0.464 | 0.762 | 0.965 |  | 0.89 |  |  | 0.103 | 1 | 0.493 | 0.637 | 0.742 | 0.963
